{"source": "patent EP0768085A1", "about": "“ANTIBACTERIAL AGENT” (DAIICHI PHARMACEUTICAL CO., LTD., priority 1994, dated 1996)", "key": {"[1]": {"tested_on": "Staphylococcus aureus 209-P", "experiment": "Antibacterial activity (IC), Mueller-Hinton broth, 96-well microplate (Example 4, Table 39)", "assay_type": "cell-based", "details": "37°C, 18 hours", "summary_of_the_method": "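S. aureus 209-P at 10^6 CFU/ml in Mueller-Hinton broth, compound (DMSO/water) at final 100, 10 and 1 µg/ml, 18 h at 37°C. Growth inhibition scored by turbidity; IC reported as ≤100, ≤10 or ≤1 µg/ml bands.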"}, "Pasteurella from cattle": {"tested_on": "Pasteurella from cattle", "experiment": "MIC by agar plate dilution method (Example 9, Table 44)", "assay_type": "cell-based", "details": "18 h", "method": "(§1) Through use of a ketonitrile derivative of the present invention (Compound No. 4) as a sample, minimum inhibitory concentrations (MIC) of Staphylococcus aureus and Pasteurella from cattle were determined by an agar plate dilution method in accordance with the standard procedure authorized by Japan Chemotherapy Association [\"Chemotherapy\", 29, 76-79, 1981, under the heading \"Revised Measurement of Minimum Inhibitory Concentration (MIC)\"]. The samples were dissolved in dimethylsulfoxide and diluted with the same amount of sterilized distilled water to prepare a bulk sample liquid of 1,000 µg/ml. The bulk was diluted into a series of 2-fold dilutions using sterilized distilled water.\n(§2) Separately, the bacterial cell suspensions for the test shown in Table 18 were cultured in Mueller-Hinton broth (DIFCO) at 37°C for 18-20 hours in advance. They were controlled to have a bacterial amount of 10^6 CFU/ml by use of Mueller-Hinton broth. The thus-controlled liquids were inoculated to a Muller-Hinton agar plate containing the sample, followed by culturing at 37°C for 18 hours. The concentration at which bacterial growth was no longer observed was taken as the MIC."}, "Staphylococcus aureus": {"tested_on": "Staphylococcus aureus", "experiment": "MIC by agar plate dilution method (Example 9, Table 44)", "assay_type": "cell-based", "details": "18 h", "method": "as §1, §2"}, "[2]": {"tested_on": "Pasteurella multocida (Kobe-6)", "experiment": "Antibacterial activity (IC), broth microplate as in Example 4 (Example 6, Table 41)", "assay_type": "cell-based", "details": "18 h, origin pig", "method": "A suitable amount of a sample was dissolved in dimethylsulfoxide (DMSO), and the resultant solution was diluted with the same amount of sterilized distilled water to prepare a bulk sample of 1,000 µg/ml. Mueller-Hinton broth (product of DIFCO) was dispensed into each well of 96-well microplate. Thereafter, the bulk specimen was added to the first well of a row, and successively diluted (10-fold each time) with sterilized distilled water. Separately, a bacterial cell suspension for the test (Staphylococcus aureus 209-P) which had been cultured in the above-mentioned broth overnight at 37°C was inoculated to each well so that the final inoculation amount of 10^6 CFU/ml was attained. The final concentrations of the samples were 100, 10, and 1 µg/ml.\nThe antibacterial action was evaluated by the inhibitory concentration (hereinafter abbreviated as IC) at which propagation of the bacteria cultured at 37°C for 18 hours was inhibited. Inhibition was determined by the turbidity of the medium. The expressions \"IC≤100\", \"≤10\", and \"≤1\" indicate that MIC-equivalent values obtained at the succesive […] dilution of the sample are 100-10 µg/ml, 10-1 µg/ml, and not more than 1 µg/ml, respectively. […] (In the subsequent Examples, the same rule applies correspondingly.) Table 39\nIn a manner similar to that described in Example 4, antibacterial activity of the invention compound was determined. The bacterium used for the test was Pasteurella Kobe-6 (origin: pig; Pasteurella multocida)."}, "in vivo": {"experiment": "in vivo", "details": "mouse, oral administration, single dose, suspended in aqueous 0.5% CMC solution, male mice, observed for 14 days", "method": "Acute toxicity (LD50) of a ketonitrile derivative of the present invention (Compound No. 4) was tested using male mice (Slc:ddY, 5 weeks old). To groups of each 5 mice, the compounds suspended in aqueous 0.5% CMC solution were forcibly dosed orally at a single time so that the final dosages of 707, 1,000, 1,414, and 2,000 mg/kg were attained. […] As a result, LD50 value under conditions of oral administration was estimated to be higher than 2,000 mg/kg. Thus, the compound was confirmed to be quite non-toxic.\nTo groups of each 5 mice, the compounds suspended in aqueous 0.5% CMC solution were forcibly dosed orally at a single time so that the final dosages of 500, 1,000, 1,500, and 2,000 mg/kg were attained. […] As a result, the LD50 value was estimated to be higher than 2,000 mg/kg. Thus, the compounds were confirmed to be quite non-toxic."}, "[3]": {"tested_on": "Staphylococcus aureus TI-1", "experiment": "Antibacterial activity (IC), broth microplate as in Example 4 (Example 5, Table 40)", "assay_type": "cell-based", "details": "TI1, 18 h", "summary_of_the_method": "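S. aureus TI-1 at 10^6 CFU/ml in Mueller-Hinton broth exposed to compound at final 100, 10 and 1 µg/ml (DMSO/water stock), 37 °C for 18 h. Growth inhibition judged by turbidity; IC reported as ≤100, ≤10 or ≤1 µg/ml bands.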"}, "[4]": {"tested_on": "various bacterial strains", "experiment": "MIC by microliquid dilution method (Example 10, Table 45)", "assay_type": "cell-based", "method": "Through use of a ketonitrile derivative of the present invention (Compound No. 4) as a sample, minimum inhibitory concentrations (MIC) of respective bacterial strains were determined by a microliquid dilution method in accordance with the standard procedure authorized by Japan Chemotherapy Association [\"Chemotherapy\", 29, 76-79, 1981, under the heading \"Revised Measurement of Minimum Inhibitory Concentration (MIC)\"]. The samples were dissolved in dimethylsulfoxide and diluted with the same amount of sterilized distilled water to prepare a bulk sample liquid of 1,000 µg/ml. The bulk sample was cultured in Mueller-Hinton broth at 37°C for 18 hours."}}, "note": "Where two headings read alike, the source gives them in different places.", "data": [{"compound": "CC(Oc1ccc(Oc2ncc(C(F)(F)F)cc2Cl)cc1)C(=O)C(C#N)c1ccc(Cl)c(Cl)c1", "note": "(stereo not drawn) [Compound No. 4, 4-[4-(3-chloro-5-trifluoromethyl-2-pyridyloxy)phenoxy]-2-(3,4-dichlorophenyl)-3-oxopentanonitrile]", "values": [{"measurement": "MIC", "setting": "[1]", "value": "≤ 1", "unit": "µg/mL"}, {"measurement": "MIC", "setting": "Pasteurella from cattle; Pasteurella Multosida 1F-17, origin Cattle", "value": 1.56, "unit": "µg/mL"}, {"measurement": "MIC", "setting": "Pasteurella from cattle; Pasteurella haemolytica 1F-15, origin Cattle", "value": 6.25, "unit": "µg/mL"}, {"measurement": "MIC", "setting": "Staphylococcus aureus; 209P, Staphylococcus aureus 209P, origin Standard strain", "value": 1.56, "unit": "µg/mL"}, {"measurement": "MIC", "setting": "Staphylococcus aureus; Staphylococcus aureus 1SS1, origin Chicken", "value": 3.13, "unit": "µg/mL"}, {"measurement": "MIC", "setting": "Staphylococcus aureus; Staphylococcus aureus 3-2, origin Pig", "value": 3.13, "unit": "µg/mL"}, {"measurement": "MIC", "setting": "Staphylococcus aureus; Staphylococcus aureus TI-1, origin Cattle", "value": 6.25, "unit": "µg/mL"}, {"measurement": "MIC", "setting": "[2]", "value": "10 to 100", "unit": "µg/mL"}, {"measurement": "LD50 at 336 h", "setting": "in vivo", "value": "> 2000", "unit": "mg/kg"}, {"measurement": "MIC", "setting": "[3]", "value": "≤ 1", "unit": "µg/mL"}, {"measurement": "MIC", "setting": "[4]; 18 h, Staphylococcus aureus SMITH, read-out: MIC", "value": 3.13, "unit": "µg/mL"}, {"measurement": "MIC", "setting": "[4]; 18 h, Staphylococcus epidermis 56556, read-out: MIC", "value": 6.25, "unit": "µg/mL"}, {"measurement": "MIC", "setting": "[4]; 18 h, Streptococcus mitis 11D 685, read-out: MIC", "value": 12.5, "unit": "µg/mL"}, {"measurement": "MIC", "setting": "[4]; 18 h, Streptococcus pyogenes G-36, read-out: MIC", "value": 6.25, "unit": "µg/mL"}, {"measurement": "MIC", "setting": "[4]; ATCC6633, 18 h, Bacillus subtilis ATCC 6633, read-out: MIC", "value": 3.13, "unit": "µg/mL"}, {"measurement": "MIC", "setting": "[4]; ATCC19433, 18 h, Enterococcus faecalis ATCC 19433, read-out: MIC", "value": 6.25, "unit": "µg/mL"}, {"measurement": "MIC", "setting": "[4]; Staphylococcus aureus M5-1 (Methicillin-resistant Staphylococcus aureus)", "value": 3.13, "unit": "µg/mL"}, {"measurement": "MIC", "setting": "[4]; Staphylococcus aureus M5-2 (Methicillin-resistant Staphylococcus aureus)", "value": 3.13, "unit": "µg/mL"}]}]}
